Patent US10208000B2, “Eis inhibitors” (priority 2015, dated 2019)

Experiments:
H37Rv Mtb = assay: Mycobacterial MIC determination by alamar blue assay, KAN with sulfonyl isothiazoles; format: cell-based, Mycobacterium tuberculosis; conditions: KAN MIC in presence of compound at concentration tested (100x IC50 or 20 μM); KAN line = absence of compound
K204 Mtb = format: cell-based, Mycobacterium tuberculosis; conditions: for K204 MICKAN: KAN MIC in presence of compound at concentration tested (100x IC50 or 20 μM), KAN line = absence of compound
AAC(3)-IV [1] = assay: Inhibitor selectivity, sulfonamides; format: biochemical, E. coli; conditions: concentrations as high as 200 μM
Procedure: (§1) To examine the selectivity of our two best inhibitors (39 and 46) towards Eis, next these two compounds were tested against three other AAC enzymes: AAC(2′)-Ic from Mtb (17, 18), AAC(3)-IV from E. coli (19, 20), and AAC(6′)-Ie/APH(2″)-Ia from Staphylococcus aureus (21, 22).
(§2) The conditions utilized for determination of IC50 values were also used here under the optimum conditions for each enzyme. […] AAC(6′)-Ie/APH(2″)-Ia experiments were incubated at 37° C. All other methods and concentrations are the same as for the experiments with Eis_Mtb.

AAC(2′)-Ic [2] = target: T1, AAC(2′)-Ic (Mycobacterium tuberculosis (strain ATCC 25618 / H37Rv), UniProt P9WQG9); assay: biochemical; set-up: species or system Mtb
AAC(6′)-Ie/APH(2″)-Ia [3] = target: T2, AAC(6′)-Ie/APH(2″)-Ia (Staphylococcus aureus, UniProt P0A0C1); assay: Inhibitor selectivity, sulfonamides; format: biochemical; conditions: concentrations as high as 200 μM
Procedure: as §1, §2

Mtb H37Rv = assay: Mycobacterial MIC determination by alamar blue, KAN with sulfonamides; format: cell-based, Mycobacterium tuberculosis; conditions: anti-TB activity of KAN against Mtb H37Rv with compound; KAN line = KAN alone
Mtb K204 = format: cell-based, Mycobacterium tuberculosis
purified Eis [4] = target: T3, purified Eis (Mycobacterium tuberculosis (strain ATCC 25618 / H37Rv), UniProt P9WFK7); format: biochemical
[5] = target: Eis_Mtb acetyltransferase (Mycobacterium tuberculosis (strain ATCC 25618 / H37Rv), UniProt P9WFK7); format: biochemical; conditions: library compounds 20 μM
AAC(3)-IV [6] = assay: Inhibitor selectivity, sulfonyl isothiazoles; format: biochemical, E. coli; conditions: optimal reaction conditions for the enzyme
AAC(2′)-Ic [7] = target: T1, AAC(2′)-Ic
Procedure: The conditions described above for determination of IC50 values were used under the optimum conditions for each enzyme. […] AAC(6′)/APH(2″) experiments were incubated at 37° C. while AAC(3)-IV and AAC(2′)-Ic experiments were incubated at 25° C. All other methods and concentrations remained identical to those for the experiments with Eis.

AAC(6′)-Ie/APH(2″)-Ia [8] = target: T2, AAC(6′)-Ie/APH(2″)-Ia; assay: Inhibitor selectivity, sulfonyl isothiazoles; format: biochemical; conditions: optimal reaction conditions for the enzyme
purified Eis [9] = target: T3, purified Eis; conditions: read-out: IC50 (μM) in the Eis acetyltransferase assay

Row | Compound | H37Rv MICKAN (H37Rv Mtb) | K204 MICKAN (K204 Mtb) | other results
1 | CCN1CCN(CCNC2=NS(=O)(=O)C(c3ccc(F)cc3)=C2C)CC1 [Compound 37b] | 0.625 µg/mL | 2.5 to 5 µg/mL | 
2 | CC1=C(c2ccc(C)c(C)c2)S(=O)(=O)N=C1NCC(=O)NCc1ccc2c(c1)OCO2 [Compound 115i] | 0.625 µg/mL | 10 µg/mL | 
3 | CN(c1ccc2ccccc2c1)S(=O)(=O)c1ccc2[nH]c(=O)c(=O)[nH]c2c1 [Compound 46] |  |  | inhibition of KAN acetylation by AAC(3)-IV (AAC(3)-IV [1]): did not inhibit; inhibition of KAN acetylation by AAC(2′)-Ic (AAC(2′)-Ic [2]): did not inhibit; inhibition of KAN acetylation by AAC(6′)-Ie/APH(2″)-Ia (AAC(6′)-Ie/APH(2″)-Ia [3]): did not inhibit; H37Rv MICKAN (Mtb H37Rv): ≤1.25 µg/mL
4 | CC1=C(c2ccccc2)S(=O)(=O)N=C1NCCN1CCCCC1 [Compound 33a] | 0.625 µg/mL | 5 µg/mL | 
5 | CCCN1CCN(CCCNC2=NS(=O)(=O)C(c3ccc(C(C)C)cc3)=C2C)CC1 [Compound 15f] | 0.625 to 1.25 µg/mL | 10 µg/mL | 
6 | CC(C)c1ccc(N(C)S(=O)(=O)c2ccc3[nH]c(=O)c(=O)[nH]c3c2)cc1 [Compound 35] |  |  | K204 MICKAN (Mtb K204; anti-TB activity of KAN against Mtb K204 with compound, KAN line = KAN alone): 2.5 µg/mL
7 | CC1=C(c2ccc(C)cc2)S(=O)(=O)N=C1NCCN1CCOCC1 [Compound 35e] | 0.625 µg/mL | 5 µg/mL | 
8 | CCN(CC)CCCNC1=NS(=O)(=O)C(c2ccc(C)c(C)c2)=C1C [Compound 3i] | 0.625 µg/mL | 1.25 µg/mL | reduction in KAN MIC against Mtb K204 (K204 Mtb): 8 fold
9 | CC1=C(c2ccc(F)cc2)S(=O)(=O)N=C1NCc1ccco1 [Compound 87b] | 1.25 µg/mL | 10 µg/mL | 
10 | CC1=C(c2cccc(Cl)c2)S(=O)(=O)N=C1NCCN1CCOCC1 [Compound 35g] | 0.625 µg/mL | 2.5 µg/mL | 
11 | CCCN1CCN(CCCNC2=NS(=O)(=O)C(c3ccc(C)cc3)=C2C)CC1 [Compound 15e] | 0.625 to 1.25 µg/mL | 5 µg/mL | 
12 | CC1=C(c2ccc(C)c(C)c2)S(=O)(=O)N=C1NCCCN1CCOCC1 [Compound 13i] | 0.625 µg/mL | 5 µg/mL | 
13 | CC1=C(c2ccc(Cl)cc2)S(=O)(=O)N=C1NCCCN1CCc2ccccc2C1 [Compound 11c] | 0.625 µg/mL | 1.25 µg/mL | reduction in KAN MIC against Mtb K204 (K204 Mtb): 8 fold
14 | CC1=C(c2ccc(F)cc2)S(=O)(=O)N=C1NCCCN1CCCCC1C (stereo not shown) [Compound 7b] | 0.625 µg/mL | 2.5 µg/mL | 
15 | CC1=C(c2ccccc2)S(=O)(=O)N=C1N1CCC(N2CCCCC2)CC1 [Compound 46a] | 0.625 to 1.25 µg/mL | 10 µg/mL | 
16 | CC1=C(c2cccc(Cl)c2)S(=O)(=O)N=C1NCCCN1CCOCC1 [Compound 13g] | 0.625 µg/mL | 2.5 to 5 µg/mL | 
17 | COc1cccc(N(C)S(=O)(=O)c2ccc3[nH]c(=O)c(=O)[nH]c3c2)c1 [Compound 39] |  |  | inhibition of KAN acetylation by AAC(3)-IV (AAC(3)-IV [1]): did not inhibit; inhibition at 200 µM (AAC(2′)-Ic [2]; read-out: inhibition of AAC(2′)-Ic activity): 15%; inhibition of KAN acetylation by AAC(6′)-Ie/APH(2″)-Ia (AAC(6′)-Ie/APH(2″)-Ia [3]): did not inhibit
18 | CCN(CC)C1=NS(=O)(=O)C(c2cccc(Cl)c2)=C1C [Compound 81g] | 0.625 µg/mL | 2.5 µg/mL | 
19 | CCCNC1=NS(=O)(=O)C(c2ccc(F)cc2)=C1C [Compound 139b] | 0.625 µg/mL | 10 µg/mL | 
20 | CC1=C(c2cccc(Br)c2)S(=O)(=O)N=C1NCCN1CCOCC1 [Compound 35h] | 0.625 µg/mL | 2.5 µg/mL | 
21 | CN(c1ccccc1)S(=O)(=O)c1ccc2[nH]c(=O)c(=O)[nH]c2c1 [Compound 33] |  |  | decrease in Eis inhibitory activity compared to lead 29 (purified Eis [4]): 70 fold

Row | Compound | H37Rv MICKAN (H37Rv Mtb) | K204 MICKAN (K204 Mtb) | other results
22 | CCCNC1=NS(=O)(=O)C(c2ccc(C)c(C)c2)=C1C [Compound 139i] | 1.25 µg/mL | 10 µg/mL | 
23 | CC1=C(c2ccc(C)c(C)c2)S(=O)(=O)N=C1NCCN1CCOCC1 [Compound 35i] | 0.625 µg/mL | 2.5 µg/mL | 
24 | CCN1CCN(CCNC2=NS(=O)(=O)C(c3ccc(OC)cc3)=C2C)CC1 [Compound 37d] | 0.625 to 1.25 µg/mL | 5 to 10 µg/mL | 
25 | CC1=C(c2ccc(Cl)cc2)S(=O)(=O)N=C1NCCCN1CCN(C)CC1 [Compound 14c] | 0.625 µg/mL | 5 µg/mL | 
26 | CC1=C(c2ccccc2)S(=O)(=O)N=C1NCCCN1CCOCC1 [Compound 13a] | 0.625 µg/mL | 2.5 µg/mL | 
27 | CCN(CC)C1=NS(=O)(=O)C(c2ccc(F)cc2)=C1C [Compound 81b] | 0.625 µg/mL | 2.5 to 5 µg/mL | 
28 | CCCNC1=NS(=O)(=O)C(c2ccc(C)cc2)=C1C [Compound 139e] | 1.25 µg/mL | 10 µg/mL | 
29 | NC[C@H]1O[C@H](O[C@H]2[C@H](O)[C@@H](O[C@H]3O[C@H](CO)[C@@H](O)[C@H](N)[C@H]3O)[C@H](N)C[C@@H]2N)[C@H](O)[C@@H](O)[C@@H]1O [KAN, kanamycin A, reference compound] | 1.25 µg/mL | 10 µg/mL | 
30 | CC1=C(c2ccc(C)cc2)S(=O)(=O)N=C1NCCCN1CC(C)CC(C)C1 (stereo not shown) [Compound 8e] | 0.625 µg/mL | 2.5 to 5 µg/mL | 
31 | CC1=C(c2ccccc2)S(=O)(=O)N=C1NCCCN1CC(C)CC(C)C1 (stereo not shown) [Compound 8a] | 0.625 to 1.25 µg/mL | 5 µg/mL | 
32 | CC1=C(c2ccc(C)cc2)S(=O)(=O)N=C1NCCCN1CCCCCC1 [Compound 12e] | 0.625 µg/mL | 2.5 µg/mL | 
33 | CN(c1ccc(Br)cc1)S(=O)(=O)c1ccc2[nH]c(=O)c(=O)[nH]c2c1 [Compound 29] |  |  | Eis inhibition in the HTS [5]: identified as hits; reduction of KAN MIC value compared to KAN alone (Mtb K204; K204 Mtb): four-fold
34 | CC1=C(c2ccc(F)cc2)S(=O)(=O)N=C1NCCCN1CCCCC1 [Compound 6b] | 0.625 µg/mL | 2.5 µg/mL | 
35 | CC1=C(c2ccc(C)c(C)c2)S(=O)(=O)N=C1NCCCN1CCN(C2CCCCC2)CC1 [Compound 17i] | 0.625 to 1.25 µg/mL | 5 µg/mL | 
36 | CC1=C(c2cccc(Br)c2)S(=O)(=O)N=C1N1CCC(N2CCCCC2)CC1 [Compound 46h] | 0.625 µg/mL | 5 µg/mL | 
37 | CC1=C(c2ccc(Cl)cc2)S(=O)(=O)N=C1N1CCC(N2CCCCC2)CC1 [Compound 46c] | 0.625 µg/mL | 2.5 µg/mL | inhibition of AAC(3)-IV (AAC(3)-IV [6]): no inhibition; inhibition of AAC(2′)-Ic (AAC(2′)-Ic [7]): no inhibition; inhibition of AAC(6′)-Ie/APH(2″)-Ia (AAC(6′)-Ie/APH(2″)-Ia [8]): no inhibition
38 | CC1=C(c2ccc(C)c(C)c2)S(=O)(=O)N=C1N1CCC(C(=O)N2CCCC2)CC1 [Compound 52i] | 0.625 µg/mL | 2.5 µg/mL | 
39 | CC1=C(c2ccc(F)cc2)S(=O)(=O)N=C1N1CCC(N2CCCCC2)CC1 [Compound 46b] | 0.625 to 1.25 µg/mL | 5 µg/mL | inhibition of AAC(3)-IV (AAC(3)-IV [6]): no inhibition; inhibition of AAC(2′)-Ic (AAC(2′)-Ic [7]): no inhibition; IC50 (purified Eis [9]): 0.092 ± 0.021 µM; inhibition of AAC(6′)-Ie/APH(2″)-Ia (AAC(6′)-Ie/APH(2″)-Ia [8]): no inhibition
40 | CC1=C(c2ccc(F)cc2)S(=O)(=O)N=C1NCc1ccccc1 [Compound 89b] | 1.25 µg/mL | 10 µg/mL | 
41 | COc1ccc(C2=C(C)C(NCCN3CCN(C)CC3)=NS2(=O)=O)cc1 [Compound 36d] | 0.625 µg/mL | 2.5 to 5 µg/mL | 
42 | CC1=C(c2ccc(C)cc2)S(=O)(=O)N=C1NCCCN1CCOCC1 [Compound 13e] | 0.625 µg/mL | 2.5 µg/mL | 
